Experiments:
rat [1] = settings: Combined chronic toxicity/carcinogenicity; sprague dawley; Oral; Feed; dose end: 104 week; group: systemic; systemic / in life observation / body weight / body weight + systemic / in life observation / body weight / body weight gain + systemic / in…
rat [2] = settings: Multigenerational reproductive toxicity study, sprague dawley, Inhalation, Whole-Body, dose end: 2 generation
rat [3] = settings: Chronic toxicity, sprague dawley, Oral, Feed, dose end: 4 week, group: systemic
rat [4] = settings: Prenatal developmental toxicity study; wistar; Inhalation; Whole-Body; dose end: 19 GD; group: maternal; systemic / pathology gross / kidney / [other]
rat [5] = settings: Prenatal developmental toxicity study, sprague dawley, Oral, Gavage/Intubation, dose end: 15 GD
mouse [6] = settings: Subchronic oral toxicity in rodents, cd1, Feed, dose end: 17 week, group: systemic, systemic / organ weight / liver / absolute + systemic / organ weight / liver / relative to body weight + systemic / organ weight / liver / …
mouse [7] = settings: Subchronic oral toxicity in rodents, cd1, Feed, dose end: 13 week, group: systemic
rabbit = settings: Prenatal developmental toxicity study, new zealand white, Oral, Gavage/Intubation, dose end: 19 GD
rat [8] = settings: Multigenerational reproductive toxicity study, other, Oral, Feed, dose end: 2 generation
mouse [9] = settings: Subchronic oral toxicity in rodents, cd1, Feed, dose end: 13 week, group: systemic, systemic / pathology microscopic / liver / hypertrophy + systemic / pathology microscopic / liver / necrosis + systemic / pathology …
dog [10] = settings: Subchronic oral toxicity in nonrodent, beagle, Feed, dose end: 13 week, group: systemic, systemic / pathology microscopic / stomach / [other]
mouse [11] = settings: Carcinogenicity, cd1, Oral, Feed, dose end: 18 month, group: systemic
rat [12] = settings: Subchronic oral toxicity in rodents, other, Feed, dose end: 3 month, group: systemic
dog [13] = settings: Chronic toxicity, beagle, Oral, Feed, dose end: 52 week, group: systemic
rat [14] = settings: Prenatal developmental toxicity study, sprague dawley, Oral, Gavage/Intubation, dose end: 15 GD; remark: listed apart in the source
rat [15] = settings: Combined chronic toxicity/carcinogenicity, sprague dawley, Oral, Feed, dose end: 24 month, group: systemic
mouse [16] = settings: Carcinogenicity, cd1, Oral, Feed, dose end: 24 month, group: systemic
mouse [17] = settings: Carcinogenicity, cd1, Oral, Feed, dose end: 104 week, group: systemic
dog [18] = settings: Chronic toxicity, beagle, Oral, Gavage/Intubation, dose end: 6 month, group: systemic
rat [19] = settings: Combined chronic toxicity/carcinogenicity, sprague dawley, Oral, Feed, dose end: 108 week, group: systemic
mouse [20] = settings: Combined chronic toxicity/carcinogenicity, b6c3f1, Oral, Water, dose end: 104 week, group: systemic
[21] = group: offspring, systemic / in life observation / body weight / offspring (pup) weight
[22] = group: parental, systemic / in life observation / body weight / body weight
[23] = group: reproductive, reproductive / reproductive performance / pregnancy / pregnancy
[24] = systemic / in life observation / body weight / body weight gain
[25] = systemic / in life observation / body weight / body weight gain + systemic / in life observation / food consumption / food consumption
[26] = group: developmental, developmental / developmental malformation / bone / short + developmental / developmental malformation / bone / unossified + developmental…
[27] = group: maternal, systemic / in life observation / body weight / body weight gain + systemic / in life observation / food consumption / food consumption
[28] = group: maternal, systemic / in life observation / body weight / body weight gain + systemic / in life observation / food consumption / food consumption + …
[29] = systemic / pathology microscopic / liver / hypertrophy + systemic / pathology microscopic / liver / necrosis + systemic / pathology …
[30] = group: developmental, developmental / developmental malformation / bone / full supernumerary
[31] = group: offspring, systemic / in life observation / body weight / offspring (pup) weight + systemic / pathology microscopic / liver / hypertrophy
[32] = group: offspring, systemic / in life observation / body weight / offspring (pup) weight + systemic / pathology microscopic / liver / hypertrophy + …
[33] = group: parental, systemic / pathology microscopic / liver / hypertrophy
[34] = group: parental, systemic / pathology microscopic / liver / hypertrophy + systemic / in life observation / food consumption / food consumption + systemic / …
[35] = group: reproductive, reproductive / offspring survival early / litter size / litter size + reproductive / offspring survival early / birth index / live birth …
[36] = systemic / pathology microscopic / liver / hypertrophy + systemic / organ weight / liver / absolute + systemic / organ weight / liver / …
[37] = systemic / pathology microscopic / mammary gland / hypertrophy
[38] = systemic / pathology microscopic / stomach / hyperemia
[39] = group: developmental, developmental / developmental malformation / mouth / jaw / cleft palate + systemic / in life observation / body weight / fetal weight
[40] = group: maternal, systemic / in life observation / body weight / body weight gain + systemic / in life observation / clinical signs / ataxia + systemic / in …
[41] = systemic / in life observation / body weight / body weight gain + systemic / pathology microscopic / liver / hypertrophy + systemic / …
[42] = systemic / pathology microscopic / liver / lesion(s) (nos) + systemic / organ weight / liver / nos
[43] = systemic / pathology microscopic / liver / pigmentation
[44] = systemic / organ weight / thyroid gland / absolute
[45] = systemic / organ weight / thyroid gland / absolute + systemic / hematology / platelet / platelet + systemic / in life observation / body …
[46] = systemic / pathology microscopic / adrenal gland / hyperplasia + systemic / pathology microscopic / thyroid gland / hyperplasia
[47] = systemic / pathology microscopic / adrenal gland / hyperplasia + systemic / pathology microscopic / thyroid gland / hyperplasia + systemic…
[48] = systemic / in life observation / body weight / body weight
[49] = systemic / in life observation / body weight / body weight + systemic / in life observation / water consumption / water consumption

In the case of `CBr` [Methyl bromide], the LEL (rat [1]) is reported as 11.1 mg/kg/day, the LOAEL (rat [1]) is reported as 11.1 mg/kg/day and the NEL (rat [1]) is reported as 2.2 mg/kg/day. For the same compound, the NOAEL (rat [1]) was 2.2 mg/kg/day, the LEL (rat [2]; [21]) was 30 ppm and the LOAEL (rat [2]; [21]) was 30 ppm. The NEL (rat [2]; [21]) was 3 ppm, the NOAEL (rat [2]; [21]) was 3 ppm and the LOAEL (rat [2]; [22]) was 90 ppm. For the same compound, the NOAEL (rat [2]; [22]) was 30 ppm, the LEL (rat [2]; group: parental, systemic / in life observation / body weight / body weight + systemic / organ weight / liver / relative to body weight + systemic / organ …) was 90 ppm and the NEL (rat [2]; group: parental, systemic / organ weight / liver / relative to body weight) was 30 ppm. It also gave an LEL (rat [2]; [23]) of 30 ppm, an LOAEL (rat [2]; [23]) of 30 ppm and an NEL (rat [2]; [23]) of 3 ppm. The NOAEL (rat [2]; [23]) was 3 ppm, the LOAEL (rat [3]; [24]) was 7.59 mg/kg/day and the NEL (rat [3]; [25]) was 0.082 mg/kg/day. The NOAEL (rat [3]; [25]) was 0.825 mg/kg/day, the LEL (rat [3]; systemic / in life observation / food consumption / food consumption) was 0.825 mg/kg/day and the LEL (rat [4]) was 70 ppm. It also gave an LOAEL (rat [4]) of 70 ppm, an NEL (rat [4]) of 20 ppm and an NOAEL (rat [4]) of 20 ppm.

Compound `CCCC1COC(Cn2cncn2)(c2ccc(Cl)cc2Cl)O1` (configuration not stated) [Propiconazole] has an LEL (rat [5]; [26]) of 90 mg/kg/day, an LOAEL (rat [5]; [26]) of 90 mg/kg/day and an NEL (rat [5]; [26]) of 30 mg/kg/day. For the same compound, the NOAEL (rat [5]; [26]) was 30 mg/kg/day, the LEL (rat [5]; [27]) was 90 mg/kg/day and the NEL (rat [5]; [28]) was 30 mg/kg/day. It also gave an NOAEL (rat [5]; [28]) of 90 mg/kg/day, an LOAEL (rat [5]; group: maternal, systemic / in life observation / clinical signs / ataxia + systemic / in life observation / clinical signs / lethargy + systemic / in life …) of 300 mg/kg/day and an LEL (mouse [6]) of 65 mg/kg/day. For the same compound, the LOAEL (mouse [6]) was 65 mg/kg/day, the NEL (mouse [6]) was 2.7 mg/kg/day and the NOAEL (mouse [6]) was 2.7 mg/kg/day. The LOAEL (mouse [7]; systemic / pathology microscopic / liver / hypertrophy) was 65 mg/kg/day, the LEL (mouse [7]; systemic / pathology microscopic / liver / hypertrophy + systemic / pathology microscopic / liver / necrosis) was 65 mg/kg/day and the NEL (mouse [7]; [29]) was 2.7 mg/kg/day. It also gave an NOAEL (mouse [7]; [29]) of 2.7 mg/kg/day, an LEL (rabbit; [30]) of 400 mg/kg/day and an LOAEL (rabbit; [30]) greater than 400 mg/kg/day. The NEL (rabbit; [30]) was 250 mg/kg/day, the NOAEL (rabbit; [30]) was no less than 400 mg/kg/day and the LEL (rabbit; [27]) was 250 mg/kg/day. For the same compound, the LOAEL (rabbit; [27]) was 250 mg/kg/day, the NEL (rabbit; [28]) was 100 mg/kg/day and the NOAEL (rabbit; [28]) was 100 mg/kg/day. For the same compound, the NEL (rat [8]; [31]) was 48 mg/kg/day, the NOAEL (rat [8]; [31]) was 48 mg/kg/day and the LEL (rat [8]; [32]) was 238 mg/kg/day. The LOAEL (rat [8]; [32]) was 238 mg/kg/day, the LEL (rat [8]; [33]) was 42 mg/kg/day and the LOAEL (rat [8]; [33]) was 42 mg/kg/day. The NEL (rat [8]; [34]) was 8 mg/kg/day, the NOAEL (rat [8]; [34]) was 8 mg/kg/day and the LEL (rat [8]; [35]) was 238 mg/kg/day. For the same compound, the LOAEL (rat [8]; [35]) was greater than 238 mg/kg/day, the NEL (rat [8]; [35]) was 48 mg/kg/day and the NOAEL (rat [8]; [35]) was no less than 238 mg/kg/day. For the same compound, the LEL (mouse [9]) was 65 mg/kg/day, the LOAEL (mouse [9]) was 65 mg/kg/day and the NEL (mouse [9]) was 2.7 mg/kg/day. It also gave an NOAEL (mouse [9]) of 2.7 mg/kg/day, an LEL (dog [10]) of 6.25 mg/kg/day and an LOAEL (dog [10]) of 6.25 mg/kg/day. For the same compound, the NEL (dog [10]) was 1.25 mg/kg/day, the NOAEL (dog [10]) was 1.25 mg/kg/day and the LOAEL (mouse [11]; systemic / pathology microscopic / liver / hypertrophy + systemic / in life observation / body weight / body weight gain) was 59 mg/kg/day. The LEL (mouse [11]; systemic / pathology microscopic / liver / hypertrophy + systemic / in life observation / body weight / body weight gain + systemic / organ …) was 59 mg/kg/day, the NEL (mouse [11]; [36]) was 11 mg/kg/day and the NOAEL (mouse [11]; [36]) was 11 mg/kg/day. The LEL (rat [12]; [24]) was 16.8 mg/kg/day, the LOAEL (rat [12]; [24]) was 77.6 mg/kg/day and the NEL (rat [12]; [24]) was less than 16.8 mg/kg/day. It also gave an NOAEL (rat [12]; systemic / in life observation / body weight / body weight gain + systemic / clinical chemistry / alkaline phosphatase (alp/alk) / alkaline …) of 16.8 mg/kg/day, an LEL (dog [13]; [37]) of 1.9 mg/kg/day and an NEL (dog [13]; [37]) of 0.2 mg/kg/day. The LOAEL (dog [13]; [38]) was 8.4 mg/kg/day, the NOAEL (dog [13]; [38]) was 1.9 mg/kg/day and the LEL (rat [14]; [39]) was 300 mg/kg/day. The LOAEL (rat [14]; [39]) was greater than 300 mg/kg/day, the NEL (rat [14]; [39]) was less than 300 mg/kg/day and the NOAEL (rat [14]; [39]) was no less than 300 mg/kg/day. It also gave an LEL (rat [14]; [40]) of 300 mg/kg/day, an LOAEL (rat [14]; [40]) of 300 mg/kg/day and an NEL (rat [14]; [40]) of less than 300 mg/kg/day. For the same compound, the NOAEL (rat [14]; [40]) was less than 300 mg/kg/day, the LEL (rat [15]; [41]) was 96.4 mg/kg/day and the LOAEL (rat [15]; [41]) was 96.4 mg/kg/day. The NOAEL (rat [15]; [41]) was 18.1 mg/kg/day, the NEL (rat [15]; systemic / organ weight / liver / nos) was 18.1 mg/kg/day and the NEL (mouse [16]; systemic / organ weight / liver / nos + systemic / clinical chemistry / alanine aminotransferase (alt/sgpt) / alanine aminotransferase (alt/…) was 10 mg/kg/day. The LEL (mouse [16]; [42]) was 49.4 mg/kg/day, the LOAEL (mouse [16]; [42]) was 49.4 mg/kg/day and the NOAEL (mouse [16]; systemic / pathology microscopic / liver / lesion(s) (nos) + systemic / organ weight / liver / nos + systemic / pathology microscopic / …) was 10 mg/kg/day.

`COC(=O)NS(=O)(=O)c1ccc(N)cc1` [Asulam] was tested, and the LOAEL (mouse [17]; systemic / in life observation / body weight / body weight gain + systemic / organ weight / spleen / nos) was 8040 mg/kg/day, the LEL (mouse [17]; [43]) was 74 mg/kg/day and the NEL (mouse [17]; [43]) was less than 74 mg/kg/day. For the same compound, the NOAEL (mouse [17]; systemic / pathology microscopic / liver / pigmentation + systemic / in life observation / body weight / body weight gain + systemic / organ…) was 730 mg/kg/day, the LEL (dog [18]; [44]) was 300 mg/kg/day and the LOAEL (dog [18]; [44]) was 300 mg/kg/day. It also gave an NEL (dog [18]; [45]) of 60 mg/kg/day, an NOAEL (dog [18]; [45]) of 60 mg/kg/day and an LEL (rat [19]; [46]) of 180 mg/kg/day. For the same compound, the LOAEL (rat [19]; [46]) was 180 mg/kg/day, the NEL (rat [19]; [47]) was 36 mg/kg/day and the NOAEL (rat [19]; [47]) was 36 mg/kg/day.

`NCl` [Chloramine] gave an LEL (mouse [20]; [48]) of 6.67 mg/kg/day, an NEL (mouse [20]; [48]) of less than 6.67 mg/kg/day and an LOAEL (mouse [20]; [49]) greater than 26.7 mg/kg/day. For the same compound, the NOAEL (mouse [20]; [49]) was no less than 26.7 mg/kg/day.

Source: EPA's ToxRefDB 2
